In patent US12077501B2, “Compounds and compositions for intracellular delivery of agents” (ModernaTX, Inc., priority 2017, dated 2024):

How the values were obtained:
[1] = system: rats; experiment: Tolerability / toxicity in rats (FIGS. 8A, 8B); type: in vivo; conditions: 2 mpk, i.v. (FIG. 8A), compared to KL22
[2] = system: LDL-c; experiment: LDL-c levels in LDLR knockout mice after mRNA encoding the LDL receptor (FIG. 9B); type: in vivo, mouse; conditions: mRNAs encoding the LDL receptor, Compound 11 at 0.5 and 1 mpk (FIG. 9B)
[3] = system: hEPO; experiment: hEPO expression in rats after i.v. administration of nanoparticle compositions (FIGS. 8A, 8B); type: in vivo, rat; conditions: rats, 2 mpk, i.v. administration (FIG. 8A)
Excerpt: PBS (phosphate buffered saline) is used as control. FIG. 8A compares the hEPO concentration after administration of nanoparticle compositions containing Compound 23, Compound 11, KL22, and MC3 at 2 mpk, i.v. administration. […] FIG. 8B illustrates the results of a dose response study using Compound 20, KL22, and MC3 at dose of 0.2, 0.5 and 1 mpk. […] In FIG. 8A, the numbers 1-5 refer to compositions containing the following: 1: Compound 23, 2: Compound 11, 3: KL22; 4: MC3; 5: PBS. In FIG. 8B, the numbers […] refer to compositions containing the following: 1: Compound 20, 0.2 mpk; 2: Compound 20, 0.5 mpk; 3: Compound 20, 1 mpk; 4: KL22, 0.2 mpk; 5: KL22, 0.5 mpk; 6: KL22, 1 mpk; 7: MC3, 0.2 mpk; 8: MC3, 0.5 mpk; 9: MC3, 1 mpk; 10: PBS.

[4] = system: luciferase; experiment: Luciferase expression in LDLR −/− knockout and wild-type mice (FIG. 9A); type: in vivo, mouse; conditions: 0.05 mpk, 0.25 mpk and 0.5 mpk (FIG. 9A)
Excerpt: FIG. 9A is a bar graph showing expression of luciferase induced by administration of nanoparticle compositions including Compound 11 at dosages of 0.05 mpk, 0.25 mpk, and 0.5 mpk to LDLR −/− knockout and wild-type mice.

[5] = system: hEPO expression; experiment: Expression of hEPO in rats induced by nanoparticle compositions; type: in vivo, S.D. rats; conditions: rats, 3, 6 and 24 hours
Description: Formulations were administered intravenously, subcutaneously or intramuscularly to rats (n=3 or 6) at a dosage of 0.2 mg/kg or 0.5 mg/kg (mpk) and hEPO levels measured at 3, 6, and 24 hour time points. After the 48 hour time point, livers and spleens were harvested and frozen.
(§1) In contrast, hEPO expression in rats induced by administration of a nanoparticle composition including a compound according to one of formulae (I), (Ia1)-(Ia6), (Ib), (II), (IIa), (III), and (IIIa) was substantially […] than that measured for MC3. […] Tables 7c and 7d show additional protein expressions and clearance data from compositions with various compounds disclosed herein as compared to with MC3. Tables 7e, 7f and 7g show hEPO expression data in CD-1 mice at a dose of 0.5 mpk.

[6] = Purity at start and after storage for 65 h at 25 °C or 37 °C; type: physicochemical
[7] = Encapsulation efficiency of RNA (QUANT-IT RIBOGREEN RNA assay); type: physicochemical
How it was run: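 RiboGreen fluorescence (ex about 480, em about 520 nm) compares nanoparticle samples left intact versus disrupted with 2% Triton X-100 (15 min, 37° C). Samples are first brought to roughly 5 μg/mL in 10 mM Tris-HCl, 1 mM EDTA, pH 7.5; percent free RNA equals the blank-corrected intact/disrupted signal ratio.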

[8] = system: hEPO expression; experiment: hEPO (miR126 + miR142) mRNA expression, Tables 8b-8e; type: in vivo
[9] = Lipid clearance: % dose remaining, Tables 7c and 8b-8e (species not given); type: in vivo
Excerpt: as §1

[10] = Particle size and polydispersity index of nanoparticle compositions (Zetasizer Nano ZS); type: physicochemical
Description: A Zetasizer Nano ZS (Malvem Instruments Ltd, Malvem, Worcestershire, UK) can be used to determine the particle size, the polydispersity index (PDI) and the zeta potential of the nanoparticle compositions in 1×PBS in determining particle size and 15 mM PBS in determining zeta potential.

[11] = system: hEPO expression; experiment: hEPO expression in CD-1 mice compared with MC3; type: in vivo
How it was run: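 Dosing: 0.5 mpk nanoparticle composition, CD-1 mice. Measured: hEPO expression.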

[12] = system: hepatocytes and Kupffer cells; experiment: Mouse liver immunohistochemistry (IHC) with GFP mRNA (FIGS. 11A, 11B); type: in vivo; conditions: CD-1 mouse liver, 6h after intravenous administration, 0.5 mpk (FIG. 11A)
Excerpt: FIGS. 11A and 11B are a pair of images comparing the results of a mouse liver immunohistochemistry (IHC) using mRNA expressing green fluorescent protein (GFP) after administration of nanoparticle compositions containing Compound 4 and MC3.

[13] = Lipid clearance: % dose remaining in liver of CD-1 mice; type: in vivo; conditions: intravenous, 0.5 mg/kg, CD-1 mouse, Table 8a
How it was run: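 Expression and clearance data were obtained for nanoparticle compositions with various test compounds, run in parallel with an MC3 composition.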

[14] = Table 1f, Formulated with lipid:Chol:DOPE:PEG 1 40:38.5:20:1.5
[15] = Table 1e, row marked #: Formulated with lipid:Chol:PEG 1 50:47.5:2.5
[16] = Table 1f, row marked #: Formulated with lipid:Chol:PEG 1 50:47.5:2.5
[17] = Table 1d, row marked #: Formulated with lipid:Chol:PEG 1 50:47.5:2.5

SMILES | EE (%) [7, 14] | AUC ([8]; Table 8d) | % Dose Remaining (liver, 24 h) ([9]; Table 8d) | PDI [10, 14] | Size (nm) [10, 14] | other results
CCCCCCCCCCCCN(CCCCCCCCCCCC)CCN(CCCCCCCCCCCC)CC(=O)N1CCN(C(=O)CN(CCCCCCCCCCCC)CCCCCCCCCCCC)CC1 [Compound 11, 2-(Didodecylamino)-1-(4-(N-(2-(didodecylamino)ethyl)-N-dodecylglycyl)piperazin-1-yl)ethan-1-one] |  |  |  |  |  | tolerability [1]: improved tolerability as compared to KL22; LDL-c levels [2]: found to drop; hEPO concentration after administration of nanoparticle compositions [3]: comparable to MC3; LDLr dependence of luciferase expression [4]: LDLr independent lipid
CCCCCCCCCCCCN(CCCCCCCCCCCC)CCN(CCCCCCCCCCCC)CCN1CCN(CCN(CCCCCCCCCCCC(=O)OC)CCCCCCCCCCCC(=O)OC)CC1 [Compound 16, Dimethyl 12,12′-((2-(4-(2-((2-(didodecylamino)ethyl)(dodecyl)amino)ethyl)piperazin-1-yl)ethyl)azanediyl)didodecanoate] |  |  |  |  |  | hEPO expression at each time point, rank among compositions of Table 6 [5]: lowest hEPO expression
CCCCCCCCCN(CCCCCCCCC)CCN(CCCCCCCCC)CC(=O)N1CCN(C(=O)CN(CCCCCCCCC)CCCCCCCC(=O)OC)CC1 [Compound 44, Methyl 8-((2-(4-(N-(2-(dinonylamino)ethyl)-N-nonylglycyl)piperazin-1-yl)-2-oxoethyl)(nonyl)amino)octanoate] |  |  |  |  |  | Purity % 25° C. no shaking t = 65 h ([6]; after storage for 65 h at 25° C., no shaking): 92%; Purity % 37° C. shaking t = 65 h ([6]; after storage for 65 h at 37° C., shaking): 91%; Purity % t = 0 h ([6]; beginning of the study, 25° C.): 90%
CCCCCCCCCOC(=O)CCCCCCCN(CCCCCCCC(=O)OC(CCCCCCCC)CCCCCCCC)CCCCC(=O)N(C)CCN(C)C(=O)CCCCN(CCCCCCCC(=O)OCCCCCCCCC)CCCCCCCC(=O)OC(CCCCCCCC)CCCCCCCC [Compound 183, Di(heptadecan-9-yl) 15,18-dimethyl-9,24-bis(8-(nonyloxy)-8-oxooctyl)-14,19-dioxo-9,15,18,24-tetraazadotriacontanedioate] | 99.1% | 6.53e+07 pg·h/mL | 1.87% | Multimodal | 128.9 nm | 
CCCCCCCCCOC(=O)CCCCCCCN(CCCCCCCC(=O)OC(CCCCCCCC)CCCCCCCC)CCCCC(=O)N1CCN(C(=O)CCCCN(CCCCCCCC(=O)OCCCCCCCCC)CCCCCCCC(=O)OC(CCCCCCCC)CCCCCCCC)CC1 [Compound 184, Di(heptadecan-9-yl) 8,8′-((piperazine-1,4-diylbis(5-oxopentane-5,1-diyl))bis((8-(nonyloxy)-8-oxooctyl)azanediyl))dioctanoate] | 99.1% | 4.21e+08 pg·h/mL | 2.23% | Multimodal | 107.6 nm | 
CCCCCCCCCOC(=O)CCCCCCCN(CCCCCCCC(=O)OC(CCCCCCCC)CCCCCCCC)CCCCC(=O)OCCOC(=O)CCCCN(CCCCCCCC(=O)OCCCCCCCCC)CCCCCCCC(=O)OC(CCCCCCCC)CCCCCCCC [Compound 185, Di(heptadecan-9-yl) 8,8′-(11,24,29,42-tetraoxo-10,25,28,43-tetraoxa-19,34-diazadopentacontane-19,34-diyl)dioctanoate] | 98.6% | 2.23e+07 pg·h/mL | 18.21% | 0.27 | 98.4 nm | 
CCCCCCCCCOC(=O)CCCCCCCN(CCCCCCCC(=O)OC(CCCCCCCC)CCCCCCCC)CCCCC(=O)OC(C)C(C)OC(=O)CCCCN(CCCCCCCC(=O)OCCCCCCCCC)CCCCCCCC(=O)OC(CCCCCCCC)CCCCCCCC (centres unmarked) [Compound 186, Di(heptadecan-9-yl) 8,8′-(26,27-dimethyl-11,24,29,42-tetraoxo-10,25,28,43-tetraoxa-19,34-diazadopentacontane-19,34-diyl)dioctanoate] | 98.2% | 2.19e+07 pg·h/mL | 49.08% | 0.21 | 111.5 nm | 
CCCCCCCCCOC(=O)CCCCCCCN(CCCCCCCC(=O)OC(CCCCCCCC)CCCCCCCC)CCCCC(=O)OC(C)CC(C)OC(=O)CCCCN(CCCCCCCC(=O)OCCCCCCCCC)CCCCCCCC(=O)OC(CCCCCCCC)CCCCCCCC (centres unmarked) [Compound 187, Di(heptadecan-9-yl) 8,8′-(26,28-dimethyl-11,24,30,43-tetraoxo-10,25,29,44-tetraoxa-19,35-diazatripentacontane-19,35-diyl)dioctanoate] | 98.5% | 5.22e+07 pg·h/mL | 42.86% | 0.20 | 126.0 nm | 
CCCCCCCCCN(CCCCCCCCC)CCN(CCCCCCCCC)CC(=O)OC(C)C(C)OC(=O)CN(CCCCCCCCC)CCCCCCCCC (centres unmarked) [Compound 188, 3-((N-(2-(dinonylamino)ethyl)-N-nonylglycyl)oxy)butan-2-yl dinonylglycinate] | 97.5% | 8.76e+06 pg·h/mL | 117.31% | 0.12 | 78.0 nm | 
CCCCCCCCCN(CCCCCCCCC)CCN(CCCCCCCCC)CC(=O)OC(C)CC(C)OC(=O)CN(CCCCCCCCC)CCCCCCCCC (centres unmarked) [Compound 189, 4-((N-(2-(Dinonylamino)ethyl)-N-nonylglycyl)oxy)pentan-2-yl dinonylglycinate] | 98.3% | 1.15e+07 pg·h/mL | 91.63% | 0.16 | 70.1 nm | 
CCCCCC=CCC=CCCCCCCCCC(CCCCCCCCC=CCC=CCCCCC)OC(=O)CCCN(C)C (centres unmarked) [MC3, heptatriaconta-6,9,28,31-tetraen-19-yl 4-(dimethylamino)butanoate, reference compound] |  | 6.95e+08 pg·h/mL | 54.04% |  |  | AUC (p/s*h) CD-1 mice 0.5 mpk ([11]; intramuscular, title: 0.01 mg/kg, Table 7f): 27727 p/s*h; AUC (p/s*h) CD-1 mice 0.5 mpk ([11]; subcutaneous, 0.5 mg/kg, Table 7g): 375994 p/s*h; EE (%) [7, 15]: 93.0%; EE (%) [7, 16]: 92.5%; EE (%) [7, 17]: 84.1%; GFP protein expression in liver cell types (IHC) [12]: observed in both hepatocytes and Kupffer cells; AUC ([8]; Table 8c): 1.52e+07 pg·h/mL; AUC (mIU/mL*h) ([8]; lipid:Chol:PEG 1 50:47.5:2.5, Table 8e): 2.24E+07 mIU/mL*h; % Dose Remaining 24 hr [13]: 64.65%; hEPO expression at each time point, rank among compositions of Table 6 [5]: highest hEPO expression; % Dose Remaining (liver, 24 h) ([9]; Table 8c): 58.41%; PDI [10, 15]: 0.22; Size (nm) [10, 15]: 109.0 nm; PDI [10, 16]: 0.26; Size (nm) [10, 16]: 129.7 nm; PDI [10, 17]: 0.20; Size (nm) [10, 17]: 105.0 nm
